This is an account of results in patent US9663496B2, “AMPK-activating heterocyclic compounds and methods for using the same” (Rigel Pharmaceuticals, Inc., priority 2010, dated 2017).

The test concerns the target AMPK. The test is described as follows: AMPK activation, enzyme-linked immunosorbent assay. Type of test: biochemical. As to conditions: EC50 for AMPK activation, ELISA. An outline of the steps:
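Activator screen performed per well-known kit methods.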
In general terms: In an ELISA, binding on a coated surface is turned into a signal by an enzyme label.
Usually EC50 stands for the concentration at which the effect is half-maximal. Read a high EC50 as a less potent agent. `COc1ccc(CN2CCC(NC(=O)c3ccc(C(=O)N4CCC(C(=O)c5ccc(OC)cc5)CC4)nc3)CC2)cc1` [Compound 318, 6-(4-(4-methoxybenzoyl)piperidine-1-carbonyl)-N-(1-(4-methoxybenzyl)piperidin-4-yl)nicotinamide] came in with an EC50 of under 500 nM.
For `O=C(c1cccc(C(=O)N2CCN(c3ccccc3)CC2)n1)N1CCN(Cc2ccc(F)cc2)CC1` [Compound 94, (4-(4-fluorobenzyl)piperazin-1-yl)(6-(4-phenylpiperazine-1-carbonyl)pyridin-2-yl)methanone] the value was over 10000 nM; for `N#Cc1ccc(CN2CCC3(CCN(C(=O)c4ccc(C(=O)N5CCN(Cc6ccc(F)cc6)CC5)cn4)CC3)C2)cc1` [Compound 15, 4-((8-(5-(4-(4-fluorobenzyl)piperazine-1-carbonyl)picolinoyl)-2,8-diazaspiro[4.5]decan-2-yl)methyl)benzonitrile], 1000 to 5000 nM.
`N#Cc1ccc(CN2CCC(NC(=O)c3ccc(N4CCC(Oc5ccc(C(F)(F)F)cc5)CC4)nn3)CC2)cc1` [Compound 361, N-(1-(4-cyanobenzyl)piperidin-4-yl)-6-(4-(4-(trifluoromethyl)phenoxy)piperidin-1-yl)pyridazine-3-carboxamide] returned an EC50 of under 500 nM.
For `COc1cccc(CN2CCC(NC(=O)c3ccc(C(=O)N4CCC(Oc5ccc(S(C)(=O)=O)cc5)CC4)cn3)CC2)c1` [Compound 241, N-(1-(3-methoxybenzyl)piperidin-4-yl)-5-(4-(4-(methylsulfonyl)phenoxy)piperidine-1-carbonyl)picolinamide] the value was under 500 nM.
For `N#Cc1ccc(CN2CCC(NC(=O)c3ccc(-c4cn(Cc5ccccc5)nn4)cn3)CC2)cc1` [Compound 121, 5-(1-benzyl-1H-1,2,3-triazol-4-yl)-N-(1-(4-cyanobenzyl)piperidin-4-yl)picolinamide] the value was 1000 to 5000 nM; for `Cc1nc(Oc2ccc(C#N)cc2)ccc1NC(=O)c1ccc(C(=O)N2CCC(C(=O)c3ccc(F)cc3F)CC2)nc1` [Compound 479, N-(6-(4-cyanophenoxy)-2-methylpyridin-3-yl)-6-(4-(2,4-difluorobenzoyl)piperidine-1-carbonyl)nicotinamide], under 500 nM; for `N#Cc1ccc(CN2CCC(NC(=O)c3ccc(N4CCN(Cc5ccccc5)CC4)cn3)CC2)cc1` [Compound 110, 5-(4-benzylpiperazin-1-yl)-N-(1-(4-cyanobenzyl)piperidin-4-yl)picolinamide], 1000 to 5000 nM.
For `N#Cc1ccc(OC2CN(C(=O)c3ccc(C(=O)NC4CCN(Cc5cc(F)cc(F)c5)CC4)nc3)C2)cc1` [Compound 313, 5-(3-(4-cyanophenoxy)azetidine-1-carbonyl)-N-(1-(3,5-difluorobenzyl)piperidin-4-yl)picolinamide] the value was under 500 nM.
Molecule `N#Cc1ccc(CN2CCC(NC(=O)c3ccc(C(=O)N4CCC(Oc5ccc(S(=O)(=O)C(F)(F)F)cc5)CC4)nc3)C(F)C2)cc1` (stereo in doubt) [Compound 451, N-((3S,4R)-1-(4-cyanobenzyl)-3-fluoropiperidin-4-yl)-6-(4-(4-(trifluoromethylsulfonyl)phenoxy)piperidine-1-carbonyl)nicotinamide] registered an EC50 of under 500 nM.
For `N#Cc1ccc(CN2CCC(NC(=O)c3ccc(C(=O)N4CCC(Oc5ccc(NC(=O)C6CC6)cc5)CC4)nc3)CC2)cc1` [Compound 409, N-(1-(4-cyanobenzyl)piperidin-4-yl)-6-(4-(4-(cyclopropane-carboxamido)phenoxy)piperidine-1-carbonyl)nicotinamide] the value was under 500 nM; for `O=C(N[C@@H]1CCN(Cc2ccc(Cl)cc2)C[C@@H]1F)c1ccc(C(=O)N2CCN(Cc3ccc(F)cc3)CC2)cn1` (relative stereo) [Compound 127, N-(cis-1-(4-chlorobenzyl)-3-fluoropiperidin-4-yl)-5-(4-(4-fluorobenzyl)piperazine-1-carbonyl)picolinamide], under 500 nM.
For `N#Cc1ccc(CN2CCC(NC(=O)c3ccc(C(=O)N4CCC(C(=O)c5ccc(N=[N+]=[N-])cc5)CC4)nc3)CC2)cc1` [Compound 240, 6-(4-(4-azidobenzoyl)piperidine-1-carbonyl)-N-(1-(4-cyanobenzyl)piperidin-4-yl)nicotinamide] the value was under 500 nM; for `N#Cc1ccc(CN2CCC(NC(=O)c3ccc(C(=O)N4CCC(C(=O)c5ccc(F)c(F)c5)CC4)cn3)CC2)cc1` [Compound 281, N-(1-(4-cyanobenzyl)piperidin-4-yl)-5-(4-(3,4-difluorobenzoyl)piperidine-1-carbonyl)picolinamide], under 500 nM.
For `N#Cc1ccc(CN2CCC(NC(=O)c3ccc(C(=O)N4CCC(C(=O)c5ccc(C#N)cc5)CC4)cn3)CC2)cc1` [Compound 369, 5-(4-(4-cyanobenzoyl)piperidine-1-carbonyl)-N-(1-(4-cyanobenzyl)piperidin-4-yl)picolinamide] the value was under 500 nM.
On to `O=C(NC1CCN(Cc2cc(F)cc(F)c2)CC1)c1ccc(C(=O)N2CC(OCc3ccc(F)cc3)C2)cn1` [Compound 308, N-(1-(3,5-difluorobenzyl)piperidin-4-yl)-5-(3-(4-fluorobenzyloxy)azetidine-1-carbonyl)picolinamide], for which the EC50 was under 500 nM.
For `CC(C)(C)C(=O)N1CCN(C(=O)c2ccc(C(=O)NC3CCN(Cc4ccc(C#N)cc4)CC3)nc2)CC1` [Compound 81, N-(1-(4-cyanobenzyl)piperidin-4-yl)-5-(4-pivaloylpiperazine-1-carbonyl)picolinamide] the value was 500 to 1000 nM; for `NC(=O)c1ccc(CN2CCC(NC(=O)c3ccc(C(=O)N4CCN(Cc5ccc(F)cc5)CC4)cn3)CC2)cc1` [Compound 201, N-(1-(4-carbamoylbenzyl)piperidin-4-yl)-5-(4-(4-fluorobenzyl)piperazine-1-carbonyl)picolinamide], 500 to 1000 nM.
For `CS(=O)(=O)c1ccc(C(=O)C2CCN(C(=O)c3ccc(C(=O)NC4CCN(Cc5ccc(F)cc5)CC4)cn3)CC2)cc1` [Compound 222, N-(1-(4-fluorobenzyl)piperidin-4-yl)-6-(4-(4-(methylsulfonyl)benzoyl)piperidine-1-carbonyl)nicotinamide] the value was 1000 to 5000 nM; for `O=C(Nc1ccc(Oc2ccc(F)cc2)nc1)c1ccc(C(=O)N2CCC(Oc3ccc(C(=O)C4CC4)cc3)CC2)nc1` [Compound 457, 6-(4-(4-(cyclopropanecarbonyl)phenoxy)piperidine-1-carbonyl)-N-(6-(4-fluorophenoxy)pyridin-3-yl)nicotinamide], under 500 nM; for `COc1ccc(CN2CCC(NC(=O)c3ccc(C(=O)N4CCC(C(=O)c5ccc(F)cc5F)CC4)cn3)CC2)cc1` [Compound 331, 5-(4-(2,4-difluorobenzoyl)piperidine-1-carbonyl)-N-(1-(4-methoxybenzyl)piperidin-4-yl)picolinamide], under 500 nM.
For `CS(=O)(=O)c1ccc(OC2CCN(C(=O)c3ccc(C(=O)NC4CCN(Cc5cccc(OC(F)(F)F)c5)CC4)cn3)CC2)cc1` [Compound 239, 6-(4-(4-(methylsulfonyl)phenoxy)piperidine-1-carbonyl)-N-(1-(3-(trifluoromethoxy)benzyl)piperidin-4-yl)nicotinamide] the value was 1000 to 5000 nM; for `CC(=O)c1ccc(Oc2ccc(NC(=O)c3ccc(C(=O)N4CCC(Oc5ccc(S(C)(=O)=O)cc5)CC4)cn3)cn2)cc1` [Compound 259, N-(6-(4-acetylphenoxy)pyridin-3-yl)-5-(4-(4-(methylsulfonyl)phenoxy)piperidine-1-carbonyl)picolinamide], under 500 nM; for `N#Cc1ccc(CN2CCC(NC(=O)c3ccc(C(=O)N4CCC(C(=O)c5ccc(Cl)cc5)CC4)cn3)CC2)cc1` [Compound 154, 5-(4-(4-chlorobenzoyl)piperidine-1-carbonyl)-N-(1-(4-cyanobenzyl)piperidin-4-yl)picolinamide], under 500 nM.
`COc1ccc(C(=O)C2CCN(C(=O)c3ccc(C(=O)NC4CCN(Cc5ccc(C#N)cc5)CC4)nn3)CC2)cc1` [Compound 387, N-(1-(4-cyanobenzyl)piperidin-4-yl)-6-(4-(4-methoxybenzoyl)piperidine-1-carbonyl)pyridazine-3-carboxamide]: the EC50 was under 500 nM.
For `O=C(c1ccc(C(=O)N2CCN(Cc3ccccc3)CC2)nc1)N1CCN(Cc2ccccc2)CC1` [Compound 73, pyridine-2,5-diylbis((4-benzylpiperazin-1-yl)methanone)] the value was 5000 to 10000 nM; for `N#Cc1ccc(CN2CCC(NC(=O)c3ccc(NC4CCN(c5ccc(F)cc5)CC4)cn3)CC2)cc1` [Compound 276, N-(1-(4-cyanobenzyl)piperidin-4-yl)-5-(1-(4-fluorophenyl)piperidin-4-ylamino)picolinamide], under 500 nM; for `N#Cc1ccc(CN2CCC(NC(=O)c3cnc(C(=O)N4CCC(C(=O)c5ccc(N6CCCC6)cc5)CC4)cn3)CC2)cc1` [Compound 219, N-(1-(4-cyanobenzyl)piperidin-4-yl)-5-(4-(4-(pyrrolidin-1-yl)benzoyl)piperidine-1-carbonyl)pyrazine-2-carboxamide], under 500 nM.
In turn, `N#Cc1ccc(CN2CCC(NC(=O)c3ccc(C(=O)N4CCC(Oc5ccc(NC(=O)CCOCCOCCOCCOCCNC(=O)CCC[C@@H]6SC[C@@H]7NC(=O)N[C@@H]76)cc5)CC4)nc3)CC2)cc1` [Compound 371, N-(1-(4-cyanobenzyl)piperidin-4-yl)-6-(4-(4-(17-oxo-20-((3aS,4S,6aR)-2-oxohexahydro-1H-thieno[3,4-d]imidazol-4-yl)-4,7,10,13-tetraoxa-16-azaicosanamido)phenoxy)piperidine-1-carbonyl)nicotinamide] returned an EC50 of over 10000 nM.
For `N#Cc1ccc(CN2CCC(NC(=O)c3ccc(C(=O)N4C5CCC4CC(Oc4ccc(C#N)cc4)C5)cn3)CC2)cc1` [Compound 280, N-(1-(4-cyanobenzyl)piperidin-4-yl)-5-((1R,3r,5S)-3-(4-cyanophenoxy)-8-azabicyclo[3.2.1]octane-8-carbonyl)picolinamide] the value was under 500 nM; for `N#Cc1ccc(Oc2ccc(NC(=O)c3ccc(C(=O)N4CCC(C(=O)c5ccc(F)cc5F)CC4)nc3)nc2)cc1` [Compound 469, N-(5-(4-cyanophenoxy)pyridin-2-yl)-6-(4-(2,4-difluorobenzoyl)piperidine-1-carbonyl)nicotinamide], under 500 nM.
